The text below walks through data of US7494671B2, “Extract of Trapa natans and methods of using the same” (priority 2002, dated 2009).

What all share (type): cell-based
Settings in all cases: 50 ul saturated solution in 1 ml of cell media, in vitro

In one assay the test system is HTB 72, melanoma cells. Nature of the assay: Cancer cell proliferation assay, HTB 72. Here is the method:
(§1) […] For comparison purposes, the effects of two anticancer drugs, cisplatin and paclitaxel, on the growth of the three types of cancel cells were also determined in vitro.

In assay [1] the test system is Lncap, prostate cancer cells. Nature of the assay: Cancer cell proliferation assay, Lncap. Here is the method: as §1
For assay [2], the system named is SW 480, colorectal cancer cells. Nature of the assay: Cancer cell proliferation assay, SW 480. Here is the method:
as §1

On to `N.N.[Cl][Pt][Cl]` [Cisplatin, cisplatin], for which the “Inhibition, % HTB 72” value in the assay on HTB 72, melanoma cells is 93.78%. Moreover, the “Inhibition, % Lncap” value in assay [1] is 94.91%. For the same compound, the “Inhibition, % SW 480” value in assay [2] was determined as 78.25%.
On to `CC(=O)O[C@H]1C(=O)[C@@]2(C)[C@H]([C@H](OC(=O)c3ccccc3)[C@]3(O)C[C@H](OC(=O)[C@H](O)[C@@H](NC(=O)c4ccccc4)c4ccccc4)C(C)=C1C3(C)C)[C@]1(OC(C)=O)CO[C@@H]1C[C@@H]2O` [Paclitaxel, paclitaxel], for which the “Inhibition, % HTB 72” value with HTB 72, melanoma cells is reported as 22.61%. The “Inhibition, % Lncap” value in assay [1] amounted to 57.98%. For the same compound, the “Inhibition, % SW 480” value in assay [2] was 0.0%.
